For test [1], the system named is Wnt activity (Sp5-Luc reporter in SW480 cells). In words: Screening assay for Wnt activity: Sp5-Luc reporter gene assay in SW480 colon carcinoma cells. As to conditions: Homo sapiens, 36 to 48 hours. It counts as cell-based, human. A digest of the protocol: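 EC50 values come from a variable-slope four-parameter fit of luminescence normalized to DMSO-only wells. The read-out follows 36–48 h incubation at 37 °C, 5% CO2, in DMEM containing 1% fetal bovine serum. Cells are hygromycin-selected SW480 stably expressing firefly luciferase under a Wnt-responsive Sp5 promoter (eight TCF/LEF sites).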
For orientation: Reporter assays use an easily measured gene product as a stand-in for the process of interest.

The target of the next test is DYRK1A kinase (Homo sapiens (Human), UniProt Q13627). In words: DYRK1A kinase assay (Ser/Thr 18 peptide Z-lyte FRET). It counts as biochemical. As to conditions: read-out: EC50 (method: IC50). An outline of the steps:
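Kinase reactions with compound ran 1 h at room temperature in duplicate, and development reagent was then added for another hour.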

A further test has as its target GSK3β kinase (Homo sapiens (Human), UniProt P49841). In words: GSK3β kinase assay (Ser/Thr 09 peptide Z-lyte FRET). Type of test: biochemical. The settings on record: read-out: EC50 (method: IC50). An outline of the steps: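 Non-radioactive Z-lyte FRET read-out, kinase activity expressed as coumarin/fluorescein emission ratio. Compounds incubated with the reaction mixture one hour at room temperature in duplicate, then development buffer added for another hour. IC50 from non-linear regression of dose-response curves.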

The subject of test [2] is SW480 colon carcinoma cells. In words: Cell viability assay (CellTiter-Glo) in SW480 colon carcinoma cells. It counts as cell-based, human. The settings on record: Homo sapiens, 96 h, four days. An outline of the steps: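 Viability was taken from CellTiter-Glo ATP luminescence, read about 12 min after reagent addition, relative to DMSO controls. The cells were Sp5-Luc reporter SW480 colon carcinoma cells, 2,000/well in 1% FBS DMEM, exposed to compound for four days at 37 °C.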
(In general: In ATP-based viability assays light output follows the ATP content of the culture.)

Test [3] relates to primary human fibroblasts derived from IPF patients (LL29 cells). In words: Inhibition of the fibrotic process: αSMA staining in TGF-β1 treated LL29 fibroblasts. Type of test: cell-based. The settings on record: Homo sapiens, Fibroblast, 96 h; LL29 cells, TGF-β1 20 ng/mL, 4 days, % αSMA positive cells. A digest of the protocol: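 LL29 fibroblasts from IPF patients, in F12 medium with 1% FBS, treated with TGF-β1 plus compound; TGF-β1 with DMSO as positive control, DMSO alone as negative control. After 4 days' incubation, SYTOX green nucleic acid stain added at 1 μM final, 30 min at room temperature.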

Another test deals with IL-6. In words: IL-6 inhibition in LPS-stimulated human peripheral blood mononuclear cells (HTRF). It counts as cell-based. As to conditions: Homo sapiens, PBMC; for EC50: huPBMCs, LPS 50 ng/mL, 22 hours, IL-6 HTRF. An outline of the steps: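 HTRF 665/620 nm ratio, read after 3 h antibody incubation at room temperature, quantified IL-6 released by fresh human PBMCs (1×10e6 cells/mL, 1% FBS-RPMI). The cells got compound, then 50 ng/mL LPS at 2 h, followed by a further 22 h at 37° C. EC50 came from DMSO-normalized readings run in duplicate.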
(TR-FRET usually uses a lanthanide donor and a delayed reading to cut background.)

The values below come from patent US10934297B2, “5-heteroaryl substituted indazole-3-carboxamides and preparation and use thereof” (Samumed, LLC, priority 2018, dated 2021).

Chain of GSK3β kinase (P49841 whole entry): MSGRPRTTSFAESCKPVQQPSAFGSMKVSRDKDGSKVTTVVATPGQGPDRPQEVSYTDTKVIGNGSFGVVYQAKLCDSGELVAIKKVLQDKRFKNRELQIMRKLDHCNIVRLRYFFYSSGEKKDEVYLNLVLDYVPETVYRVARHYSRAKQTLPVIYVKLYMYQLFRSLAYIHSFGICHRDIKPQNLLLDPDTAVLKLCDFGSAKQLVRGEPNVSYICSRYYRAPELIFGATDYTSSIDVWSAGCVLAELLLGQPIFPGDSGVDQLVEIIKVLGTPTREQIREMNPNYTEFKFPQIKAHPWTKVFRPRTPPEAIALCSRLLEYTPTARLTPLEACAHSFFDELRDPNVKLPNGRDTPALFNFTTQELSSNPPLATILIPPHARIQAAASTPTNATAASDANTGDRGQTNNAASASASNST

By EC50 is commonly meant the concentration giving half of the maximal effect. Read a high EC50 as weaker potency. Broadly, the IC50 is the concentration needed to halve the response being measured. Consider `O=C(Nc1ccc(F)cc1)c1n[nH]c2ccc(-c3cnn(C4CCNCC4)c3)cc12` [Compound 48, N-(4-Fluorophenyl)-5-(1-(piperidin-4-yl)-1H-pyrazol-4-yl)-1H-indazole-3-carboxamide], for which the EC50 in test [1] was determined as 239 nM; in test [2], 354 nM; in test [3] it was 449 nM; in the test on IL-6, 5420 nM. The IC50 on DYRK1A kinase worked out at 23 nM; on GSK3β kinase it was 260 nM.
`O=C(Nc1ccc(F)cc1)c1n[nH]c2cc(F)c(-c3cnn(C4CCNCC4)c3)cc12` [Compound 49, 6-Fluoro-N-(4-fluorophenyl)-5-(1-(piperidin-4-yl)-1H-pyrazol-4-yl)-1H-indazole-3-carboxamide]: the EC50 in test [1] was 256 nM; in test [2], 208 nM; in test [3] it was 1010 nM; in the test on IL-6, 3730 nM. In addition, the IC50 is 15 nM at DYRK1A kinase and 187 nM at GSK3β kinase.
`O=C(Nc1ccc(Cl)cc1)c1n[nH]c2cc(F)c(-c3cnn(C4CCNCC4)c3)cc12` [Compound 50, N-(4-Chlorophenyl)-6-fluoro-5-(1-(piperidin-4-yl)-1H-pyrazol-4-yl)-1H-indazole-3-carboxamide]: the EC50 in test [1] turned out to be 1190 nM; in test [2], 648 nM; in test [3], 1110 nM; in the test on IL-6, 6050 nM. The IC50 is 34 nM at DYRK1A kinase and 476 nM at GSK3β kinase.
As to `CN1CCC(n2cc(-c3cc4c(C(=O)Nc5ccc(F)cc5)n[nH]c4cc3F)cn2)CC1` [Compound 51, 6-Fluoro-N-(4-fluorophenyl)-5-(1-(1-methylpiperidin-4-yl)-1H-pyrazol-4-yl)-1H-indazole-3-carboxamide], the EC50 in test [1] is 560 nM; in test [2] it was 305 nM; in test [3], 816 nM; with IL-6 it was 2560 nM. Besides, the IC50 turned out to be 16 nM at DYRK1A kinase and 558 nM at GSK3β kinase.
As usually defined, the inhibition is the share of the control response that was lost under treatment. `O=C(Nc1ccc(OC(F)F)cc1)c1n[nH]c2ccc(-c3cnn(C4CNC4)c3)cc12` [Compound 54, 5-(1-(Azetidin-3-yl)-1H-pyrazol-4-yl)-N-(4-(difluoromethoxy)phenyl)-1H-indazole-3-carboxamide]: the EC50 in test [1] is 4380 nM; in test [2], above 10000 nM; in test [3] it was 2920 nM; with IL-6, above 10000 nM. Also, the IC50 at DYRK1A kinase was 244 nM; on GSK3β kinase it was 2080 nM. In addition, the inhibition at 10 µM in the test with IL-6 (read-out: percent inhibition at 10 μM) was found to be 9.7%.
With `O=C(Nc1ccc(OC(F)F)cc1)c1n[nH]c2ccc(-c3cnn(C4CCNCC4)c3)cc12` [Compound 55, N-(4-(Difluoromethoxy)phenyl)-5-(1-(piperidin-4-yl)-1H-pyrazol-4-yl)-1H-indazole-3-carboxamide], the EC50 in test [1] was determined as 428 nM; in test [2] it was 1340 nM; in test [3], 236 nM; in the test with IL-6 it was 3850 nM. For the same molecule, the IC50 at DYRK1A kinase was found to be 37 nM; at GSK3β kinase it was 1230 nM.
In the case of `O=C(Nc1ccc(OC(F)F)cc1)c1n[nH]c2cc(F)c(-c3cnn(C4CCNCC4)c3)cc12` [Compound 56, N-(4-(Difluoromethoxy)phenyl)-6-fluoro-5-(1-(piperidin-4-yl)-1H-pyrazol-4-yl)-1H-indazole-3-carboxamide], the EC50 was 376 nM in test [1], 201 nM in test [2], 1530 nM in test [3] and 2150 nM in the test on IL-6. The figures for the IC50 on DYRK1A kinase and on GSK3β kinase were 27 nM and 330 nM, respectively.
For `CN1CCC(n2cc(-c3cc4c(C(=O)Nc5ccc(OC(F)F)cc5)n[nH]c4cc3F)cn2)CC1` [Compound 59, N-(4-(Difluoromethoxy)phenyl)-6-fluoro-5-(1-(1-methylpiperidin-4-yl)-1H-pyrazol-4-yl)-1H-indazole-3-carboxamide], the EC50 is 555 nM in test [1], 327 nM in test [2], 2540 nM in test [3] and 2590 nM with IL-6. In addition, the IC50 on DYRK1A kinase was 28 nM; at GSK3β kinase, 1290 nM.
